The values below come from patent US20230250106A1, “COMPOUNDS AND COMPOSITIONS FOR TREATING CONDITIONS ASSOCIATED WITH STING ACTIVITY” (IFM Due, Inc., priority 2020, published 2023).

By EC50 is commonly meant the concentration that produces a half-maximal response.

The test concerns STING pathway. Put plainly: STING reporter assay: luciferase reporter activity in THP1-Dual KO-IFNAR2 cells activated with 2'3'cGAMP. The test is classed as cell-based. Particulars: Homo sapiens, 2'3'cGAMP 15 μM, 24 h, read-out: hSTING EC50. An outline of the steps:
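Luciferase secreted into the supernatant (QUANTI-Luc Plus read-out) was measured after 24 h at 37 °C. This was in THP1-Dual KO-IFNAR2 cells given test compounds (0.0017-100 μM final) plus Lipofectamine-transfected 2′3′cGAMP at 15 μM final; EC50 was then derived.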
For orientation: Reporter assays use an easily measured gene product as a stand-in for the process of interest.

For the compound `O=C(Nc1c[nH]c2cc(F)c(F)cc12)c1ccc(C2(O)CCC(F)(F)CC2)nc1` [Compound 250, 6-(4,4-difluoro-1-hydroxycyclohexyl)-N-(5,6-difluoro-1H-indol-3-yl)nicotinamide], the EC50 was in the range of 1000 to 5000 nM. On to `O=C(Nc1c[nH]c2cc(F)c(F)cc12)c1ccc(OCC(F)F)cc1` [Compound 174, N-(5,6-difluoro-1H-indol-3-yl)-4-(2,2-difluoroethoxy)benzamide], for which the EC50 was in the range of 200 to 1000 nM. The value for `O=C(Nc1c[nH]c2cc(F)c(F)cc12)c1ccc(OCCC(F)(F)F)cc1` [Compound 141, N-(5,6-difluoro-1H-indol-3-yl)-4-(3,3,3-trifluoropropoxy)benzamide] was 200 to 1000 nM; that for `O=C(Nc1c[nH]c2cc(F)c(F)cc12)c1ccc(Oc2ccc(C(F)(F)F)cn2)cc1` [Compound 133, N-(5,6-difluoro-1H-indol-3-yl)-4-{[5-(trifluoromethyl)pyridin-2-yl]oxy}benzamide] was 200 to 1000 nM.

Take `Cc1cc(C(=O)Nc2c[nH]c3cc(F)c(F)cc23)cnc1NCCCC(F)(F)F` [Compound 191, N-(5,6-difluoro-1H-indol-3-yl)-5-methyl-6-((4,4,4-trifluorobutyl)amino)nicotinamide]: the concentration for a half-maximal effect (EC50) lay within 200 to 1000 nM.

For `CC(C)Oc1cc(C(=O)Nc2c[nH]c3cc(F)c(F)cc23)ccn1` [Compound 113, N-(5,6-difluoro-1H-indol-3-yl)-2-(propan-2-yloxy)pyridine-4-carboxamide], the EC50 lay in the range of 200 to 1000 nM. Consider `O=C(Nc1c[nH]c2cc(F)c(F)cc12)c1cccc(OC2CCCCC2)c1` [Compound 179, 3-(cyclohexyloxy)-N-(5,6-difluoro-1H-indol-3-yl)benzamide], for which the EC50 was 200 to 1000 nM. The value for `N#Cc1cc(C(=O)Nc2c[nH]c3ccc(Cl)cc23)cnc1N1CC(F)(F)C1` [Compound 271, N-(5-chloro-1H-indol-3-yl)-5-cyano-6-(3,3-difluoroazetidin-1-yl)nicotinamide] was 200 to 1000 nM; that for `Cc1cc(C(=O)Nc2c[nH]c3cc(F)c(F)cc23)ccc1OCCCC(F)(F)F` [Compound 155, N-(5,6-difluoro-1H-indol-3-yl)-3-methyl-4-(4,4,4-trifluorobutoxy)benzamide] was 40 to 200 nM; that for `O=C(Nc1c[nH]c2ccc(F)cc12)c1ccc(OCCCC(F)(F)F)c(F)c1` [Compound 146, 3-fluoro-N-(5-fluoro-1H-indol-3-yl)-4-(4,4,4-trifluorobutoxy)benzamide] was 40 to 200 nM. As for `O=C(Nc1c[nH]c2cc(F)c(F)cc12)c1ccc(CN2CC(F)(F)C2)c(F)c1` [Compound 181, N-(5,6-difluoro-1H-indol-3-yl)-4-((3,3-difluoroazetidin-1-yl)methyl)-3-fluorobenzamide], the concentration for a half-maximal effect (EC50) is 200 to 1000 nM. For the compound `Cc1c(C(=O)Nc2c[nH]c3cc(F)c(F)cc23)ccnc1N1CC(F)(F)C1` [Compound 253, N-(5,6-difluoro-1H-indol-3-yl)-2-(3,3-difluoroazetidin-1-yl)-3-methylisonicotinamide], the EC50 fell in the range of 1000 to 5000 nM.

As to `O=C(Nc1c[nH]c2cc(F)c(F)cc12)c1ccc(C2(O)CCC(F)(F)CC2)c(F)c1` [Compound 258, 4-(4,4-difluoro-1-hydroxycyclohexyl)-N-(5,6-difluoro-1H-indol-3-yl)-3-fluorobenzamide], the 50% effective concentration (EC50) was 200 to 1000 nM. For `C[C@@H](c1ccc(C(=O)Nc2c[nH]c3cc(F)c(F)cc23)cc1F)N1CC(F)(F)C1` (single isomer, unassigned) [Compound 244, (R or S)—N-(5,6-difluoro-1H-indol-3-yl)-4-(1-(3,3-difluoroazetidin-1-yl)-1l3-ethyl)-3-fluorobenzamide], the EC50 was in the range of 200 to 1000 nM.

For `CC(O)c1cc(C(=O)Nc2c[nH]c3cc(F)c(F)cc23)cc(C(F)(F)F)c1` (stereo not shown) [Compound 275, N-(5,6-difluoro-1H-indol-3-yl)-3-(1-hydroxyethyl)-5-(trifluoromethyl)benzamide], the 50% effective concentration (EC50) lay in the range of 1000 to 5000 nM. The value for `O=C(Nc1c[nH]c2cc(F)c(F)cc12)c1cccc(-c2noc(C3CC3)n2)c1` [Compound 234, 3-(5-cyclopropyl-1,2,4-oxadiazol-3-yl)-N-(5,6-difluoro-1H-indol-3-yl)benzamide] was 200 to 1000 nM.

On to `CC1(c2ccc(C(=O)Nc3c[nH]c4cc(F)c(F)cc34)cn2)CCN(CC(F)(F)F)CC1` [Compound 218, N-(5,6-difluoro-1H-indol-3-yl)-6-(4-methyl-1-(2,2,2-trifluoroethyl)piperidin-4-yl)nicotinamide], for which the 50% effective concentration (EC50) lay within 200 to 1000 nM.

Take `CC(O)c1cc(C(=O)Nc2c[nH]c3cc(F)c(F)cc23)ccc1C(F)(F)F` (stereo not shown) [Compound 276, N-(5,6-difluoro-1H-indol-3-yl)-3-(1-hydroxyethyl)-4-(trifluoromethyl)benzamide]: the 50% effective concentration (EC50) was 200 to 1000 nM.

Take `O=C(Nc1c[nH]c2cc(F)c(F)cc12)c1ccnc(Oc2ccccc2)c1` [Compound 263, N-(5,6-difluoro-1H-indol-3-yl)-2-phenoxypyridine-4-carboxamide]: the EC50 is 200 to 1000 nM. The value for `O=C(Nc1c[nH]c2cc(F)c(F)cc12)c1ccc(-c2noc(C3CC3)n2)cc1` [Compound 266, 4-(5-cyclopropyl-1,2,4-oxadiazol-3-yl)-N-(5,6-difluoro-1H-indol-3-yl)benzamide] was 200 to 1000 nM; that for `O=C(Nc1c[nH]c2cc(F)c(F)cc12)c1cccc(OCc2ccccc2)c1` [Compound 131, 3-(benzyloxy)-N-(5,6-difluoro-1H-indol-3-yl)benzamide] was 1000 to 5000 nM; that for `O=C(Nc1c[nH]c2cc(F)c(F)cc12)c1ccc(OC(F)(F)F)cc1` [Compound 135, N-(5,6-difluoro-1H-indol-3-yl)-4-(trifluoromethoxy)benzamide] was 200 to 1000 nM.

In the case of `O=C(Nc1c[nH]c2cc(F)c(F)cc12)c1cc(F)c(OCC(F)(F)F)c(F)c1` [Compound 115, N-(5,6-difluoro-1H-indol-3-yl)-3,5-difluoro-4-(2,2,2-trifluoroethoxy)benzamide], the concentration for a half-maximal effect (EC50) lay in the range of 200 to 1000 nM. The value for `O=C(Nc1c[nH]c2cc(F)c(F)cc12)c1ccc(OC(F)F)cn1` [Compound 270, N-(5,6-difluoro-1H-indol-3-yl)-5-(difluoromethoxy)pyridine-2-carboxamide] was 5000 to 100000 nM; that for `O=C(Nc1c[nH]c2cc(F)c(F)cc12)c1cccc(OC(F)(F)C(F)F)c1` [Compound 117, N-(5,6-difluoro-1H-indol-3-yl)-3-(1,1,2,2-tetrafluoroethoxy)benzamide] was 200 to 1000 nM. The value for `O=C(NCc1ccc(C(=O)Nc2c[nH]c3cc(F)c(F)cc23)cc1)OCc1cccnc1` [Compound 123, (pyridin-3-yl)methyl N-({4-[(5,6-difluoro-1H-indol-3-yl)carbamoyl]phenyl}methyl)carbamate] was 1000 to 5000 nM. In the case of `O=C(Nc1c[nH]c2ccc(Cl)cc12)c1cnc(N2C[C@@H]3[C@@H](COCC(F)(F)F)[C@@H]3C2)c(F)c1` [Compound 224, N-(5-chloro-1H-indol-3-yl)-5-fluoro-6-((1R,5S,6r)-6-((2,2,2-trifluoroethoxy)methyl)-3-azabicyclo[3.1.0]hexan-3-yl)nicotinamide], the 50% effective concentration (EC50) was 40 to 200 nM. The value for `O=C(Nc1c[nH]c2ccc(Cl)cc12)c1ccc(OC2CCN(CC(F)(F)F)CC2)cc1` [Compound 230, N-(5-chloro-1H-indol-3-yl)-4-((1-(2,2,2-trifluoroethyl)piperidin-4-yl)oxy)benzamide] was 40 to 200 nM; that for `Cc1nc(C(=O)Nc2c[nH]c3cc(F)c(F)cc23)cnc1OCC(F)(F)F` [Compound 173, N-(5,6-difluoro-1H-indol-3-yl)-6-methyl-5-(2,2,2-trifluoroethoxy)pyrazine-2-carboxamide] was 1000 to 5000 nM; that for `O=C(Nc1c[nH]c2cc(F)c(F)cc12)c1ccc(OCC(F)(F)F)cc1Cl` [Compound 122, 2-chloro-N-(5,6-difluoro-1H-indol-3-yl)-4-(2,2,2-trifluoroethoxy)benzamide] was 200 to 1000 nM. For `O=C(Nc1c[nH]c2cc(F)c(F)cc12)c1ccc(N2C[C@@H]3[C@@H](COCC(F)(F)F)[C@@H]3C2)c(F)c1` [Compound 227, N-(5,6-difluoro-1H-indol-3-yl)-3-fluoro-4-((1R,5S,6r)-6-((2,2,2-tifluoroethoxy)methyl)-3-azabicyclo[3.1.0]hexan-3-yl)benzamide], the 50% effective concentration (EC50) lay within 40 to 200 nM. The value for `O=C(Nc1c[nH]c2cc(F)c(F)cc12)c1ccc(C(F)(F)F)c(CCO)c1` [Compound 280, N-(5,6-difluoro-1H-indol-3-yl)-3-(2-hydroxyethyl)-4-(trifluoromethyl)benzamide] was 200 to 1000 nM; that for `O=C(Nc1c[nH]c2cc(F)c(F)cc12)c1ccc(OCCCC(F)(F)F)cn1` [Compound 139, N-(5,6-difluoro-1H-indol-3-yl)-5-(4,4,4-trifluorobutoxy)picolinamide] was 200 to 1000 nM; that for `O=C(Nc1c[nH]c2cc(F)c(F)cc12)c1cnc(N2C[C@@H]3[C@@H](COCC(F)(F)F)[C@@H]3C2)c(F)c1` [Compound 223, N-(5,6-difluoro-1H-indol-3-yl)-5-fluoro-6-((1R,5S,6r)-6-((2,2,2-trifluoroethoxy)methyl)-3-azabicyclo[3.1.0]hexan-3-yl)nicotinamide] was 40 to 200 nM.

For `O=C(Nc1c[nH]c2cc(F)c(Cl)cc12)c1ccc(C2(O)CCC(F)(F)CC2)cc1` [Compound 259, N-(5-chloro-6-fluoro-1H-indol-3-yl)-4-(4,4-difluoro-1-hydroxycyclohexyl)benzamide], the concentration for a half-maximal effect (EC50) lay in the range of 200 to 1000 nM. For the compound `COCCOc1cc(C(=O)Nc2c[nH]c3cc(F)c(F)cc23)ccc1C(F)(F)F` [Compound 232, N-(5,6-difluoro-1H-indol-3-yl)-3-(2-methoxyethoxy)-4-(trifluoromethyl)benzamide], the EC50 fell in the range of 200 to 1000 nM. The value for `O=C(Nc1c[nH]c2cc(F)c(F)cc12)c1ccc(CN2CC(F)(F)C2)nc1` [Compound 273, N-(5,6-difluoro-1H-indol-3-yl)-6-((3,3-difluoroazetidin-1-yl)methyl)nicotinamide] was 5000 to 100000 nM.
